For 8 compounds, TGI and GI50 results are on record in PubChem BioAssay (NCI).

Values joined by “and” are separate entries in the source; they are usually repeats but may differ in a detail not shown here. Identical values can stand only once.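 Compound exposure: 48 hours, 5 concentrations, 96-well plates. At the GI50, growth is halved. TGI: concentration producing complete growth inhibition.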 A value given as a limit tells only on which side of the number the result lay.

Test systems include KM12 colon; MOLT-4 leukemia; NCI-H522 lung; HCC-2998 colon; SF-539 CNS; CAKI-1 renal; HOP-62 NSCLC; SN12C renal; NCI-H460 lung; SK-OV-3 ovarian.
Holding throughout (assay): growth of human tumour cells (NCI), 48 h

Regarding `CN(C)c1ccc(/C=c2\sc3nnc(-c4ccco4)n3c2=O)cc1`, the TGI with KM12 colon, in the assay with MOLT-4 leukemia, in the assay on NCI-H522 lung, in the assay with HCC-2998 colon, in the assay with SF-539 CNS and in the assay on CAKI-1 renal was greater than 100 µM in each case. Moreover, the TGI with HOP-62 NSCLC, with SN12C renal, with NCI-H460 lung and with SK-OV-3 ovarian was greater than 100 µM each time.
For `COc1cc(-c2nn(-c3cccc(NC(=O)Nc4ccc(Cl)c(C(F)(F)F)c4)c3)cc2-c2ccncc2)ccc1Cl`, the GI50 with KM12 colon was 1.06 µM; with MOLT-4 leukemia, 1.02 µM; in the assay with NCI-H522 lung, 1.14 µM; with HCC-2998 colon, 1.55 µM; in the assay with SF-539 CNS, 1.66 µM; in the assay on CAKI-1 renal it was 0.992 µM. Further, the GI50 is 1.31 µM with HOP-62 NSCLC, 1.14 µM with SN12C renal, 1.11 µM with NCI-H460 lung and 1.45 µM in the assay with SK-OV-3 ovarian. Further, the TGI in the assay with KM12 colon was 3.91 µM; in the assay on MOLT-4 leukemia, 7.96 µM; in the assay with NCI-H522 lung, 6.06 µM; in the assay on HCC-2998 colon, 7.3 µM; with SF-539 CNS, 6.34 µM; with CAKI-1 renal it was 4.72 µM. In addition, the TGI in the assay with HOP-62 NSCLC was 6.49 µM; in the assay on SN12C renal, 9.23 µM; in the assay with NCI-H460 lung it was 4.79 µM; in the assay on SK-OV-3 ovarian, 13 µM.
For `Cc1c(CN2CCN(C(=O)[C@H](C)O)CC2)sc2c(N3CCOCC3)nc(-c3cnc(N)nc3)nc12`, the GI50 in the assay with KM12 colon is 0.755 µM and 0.393 µM; in the assay on MOLT-4 leukemia, 0.175 µM and 0.139 µM; in the assay with NCI-H522 lung it was 0.22 µM and 0.156 µM; in the assay with HCC-2998 colon, 0.552 µM and 0.242 µM; in the assay with SF-539 CNS it was 0.388 µM and 0.222 µM; in the assay with CAKI-1 renal, 0.159 µM and 0.213 µM. Besides, the GI50 with HOP-62 NSCLC is 0.548 µM and 0.182 µM; in the assay on SN12C renal, 0.179 µM and 0.174 µM; with NCI-H460 lung it was 0.12 µM and 0.108 µM; in the assay on SK-OV-3 ovarian, 0.123 µM and 0.112 µM. In addition, the TGI was > 10 µM and 15.2 µM with KM12 colon; > 10 µM and 12.7 µM in the assay with MOLT-4 leukemia; greater than 10 µM with NCI-H522 lung; 9.79 µM and 13.1 µM with HCC-2998 colon; 2.27 µM and 0.875 µM in the assay with SF-539 CNS; > 4.52 µM and 2.14 µM in the assay with CAKI-1 renal. The TGI is > 7.07 µM and 3.85 µM with HOP-62 NSCLC; greater than 100 µM in the assay on SN12C renal; greater than 100 µM with NCI-H460 lung; 1.13 µM and 0.573 µM with SK-OV-3 ovarian.
As to `Fc1cccc(COc2ccc(Nc3ncnc4onc(-c5ccccc5)c34)cc2)c1`, the GI50 is 0.173 µM in the assay with KM12 colon; 0.27 µM in the assay on MOLT-4 leukemia; 0.138 µM in the assay on NCI-H522 lung; 0.287 µM in the assay on HCC-2998 colon; 0.185 µM in the assay on SF-539 CNS; 0.573 µM in the assay on CAKI-1 renal. Also, the GI50 is 0.406 µM with HOP-62 NSCLC, 0.347 µM in the assay on SN12C renal, 0.0661 µM with NCI-H460 lung and 0.459 µM in the assay with SK-OV-3 ovarian. Besides, the TGI is greater than 38.4 µM in the assay on KM12 colon; greater than 100 µM in the assay with MOLT-4 leukemia; 0.905 µM with NCI-H522 lung; 16.8 µM in the assay on HCC-2998 colon; 1.09 µM in the assay on SF-539 CNS; greater than 100 µM with CAKI-1 renal. Also, the TGI with HOP-62 NSCLC was greater than 100 µM; with SN12C renal, greater than 100 µM; with NCI-H460 lung, greater than 53.3 µM; in the assay on SK-OV-3 ovarian it was greater than 100 µM.
In the case of `CC(=O)O.CN1[CH-]N(Cc2ccc(C#N)cc2)c2ccccc21.[Ag+]`, the GI50 is greater than 100 µM in the assay with KM12 colon; 26.1 µM in the assay with MOLT-4 leukemia; 14.5 µM in the assay on NCI-H522 lung; greater than 100 µM in the assay on HCC-2998 colon; 43.7 µM in the assay with SF-539 CNS; 18.2 µM in the assay on CAKI-1 renal. Also, the GI50 was 47.4 µM with HOP-62 NSCLC, 18.9 µM in the assay on SN12C renal, greater than 100 µM in the assay with NCI-H460 lung and 24.4 µM with SK-OV-3 ovarian. Besides, the TGI was greater than 100 µM in the assay on KM12 colon; 68.2 µM with MOLT-4 leukemia; 82.4 µM in the assay with NCI-H522 lung; greater than 100 µM with HCC-2998 colon; greater than 100 µM in the assay with SF-539 CNS; 33.9 µM in the assay with CAKI-1 renal. In addition, the TGI in the assay on HOP-62 NSCLC is greater than 100 µM; in the assay with SN12C renal it was 38.4 µM; in the assay with NCI-H460 lung, greater than 100 µM; in the assay with SK-OV-3 ovarian it was 63.5 µM.
Take `CCC[CH2][Sn](=[O])[CH2]CCC`: the GI50 was greater than 50 µM in the assay on KM12 colon; greater than 50 µM with MOLT-4 leukemia; greater than 50 µM in the assay with NCI-H522 lung; greater than 50 µM in the assay with HCC-2998 colon; greater than 50 µM in the assay with SF-539 CNS; greater than 35.1 µM in the assay on CAKI-1 renal. Also, the GI50 in the assay with HOP-62 NSCLC, in the assay with SN12C renal, in the assay with NCI-H460 lung and in the assay on SK-OV-3 ovarian was greater than 50 µM each time. Besides, the TGI in the assay with KM12 colon, with MOLT-4 leukemia, in the assay with NCI-H522 lung, with HCC-2998 colon, with SF-539 CNS and in the assay with CAKI-1 renal was greater than 50 µM throughout. In addition, the TGI in the assay with HOP-62 NSCLC, with SN12C renal, in the assay on NCI-H460 lung and with SK-OV-3 ovarian was greater than 50 µM in each case.
With `Cc1ccc(CNc2ccc3nc(CCC4CCCCC4)[nH]c3c2)cc1`, the GI50 in the assay with KM12 colon was 2.83 µM; in the assay on MOLT-4 leukemia, 2.76 µM; with NCI-H522 lung it was 1.99 µM; in the assay on HCC-2998 colon it was 2.19 µM; in the assay on SF-539 CNS it was 2.42 µM; in the assay on CAKI-1 renal it was 2.67 µM. The GI50 was 2.08 µM in the assay on HOP-62 NSCLC, 2.77 µM with SN12C renal, 2.99 µM in the assay on NCI-H460 lung and 2.17 µM in the assay with SK-OV-3 ovarian. Also, the TGI in the assay on KM12 colon came to 9.05 µM; with MOLT-4 leukemia, 9.71 µM; in the assay on NCI-H522 lung, 5.13 µM; in the assay with HCC-2998 colon, 4.35 µM; in the assay with SF-539 CNS, 6.06 µM; in the assay on CAKI-1 renal it was 7.03 µM. For the same compound, the TGI in the assay with HOP-62 NSCLC is 4.83 µM; in the assay with SN12C renal, 11.4 µM; in the assay on NCI-H460 lung, 8.6 µM; in the assay with SK-OV-3 ovarian, 5.44 µM.
Take `COc1ccc(Nc2nc(NCCNc3ccnc4cc(Cl)ccc34)nc(N3CCOCC3)n2)cc1`: the GI50 in the assay with KM12 colon is 5.18 µM; in the assay with MOLT-4 leukemia, 2.01 µM; in the assay with NCI-H522 lung, 3.85 µM; in the assay on HCC-2998 colon, 2.08 µM; in the assay with SF-539 CNS, 2.18 µM; with CAKI-1 renal, 4.17 µM. The GI50 in the assay with HOP-62 NSCLC was 8.09 µM; with SN12C renal, 8.73 µM; in the assay with NCI-H460 lung, 4.58 µM; in the assay with SK-OV-3 ovarian, 11.7 µM. Moreover, the TGI was 18 µM with KM12 colon; 11.2 µM with MOLT-4 leukemia; 11.5 µM in the assay on NCI-H522 lung; 3.88 µM with HCC-2998 colon; 7.54 µM in the assay on SF-539 CNS; 17.5 µM with CAKI-1 renal. Further, the TGI with HOP-62 NSCLC was 21.6 µM; in the assay with SN12C renal, 23.4 µM; in the assay with NCI-H460 lung, 19.3 µM; in the assay with SK-OV-3 ovarian, 24.6 µM.
